Values joined by “and” are separate entries in the source; they are usually repeats but may differ in a detail not shown here. Equal entries are not always repeated.
What was measured:
human NOX1 (hNOX1) = target: T1, human NOX1 (hNOX1) (Homo sapiens, UniProt Q9Y5S8); assay: NOX1 inhibition assay (L-012), HEK293 cells stably overexpressing human NOX1; format: cell-based; details: HEK293-hNOX1, PMA stimulated
T1 construct: pLV-CMV-hNOX1-puro (NM_007052.5); host or cells: HEK293 (CLS GmbH), lentiviral transduction
T1 sequence (Q9Y5S8 1-564): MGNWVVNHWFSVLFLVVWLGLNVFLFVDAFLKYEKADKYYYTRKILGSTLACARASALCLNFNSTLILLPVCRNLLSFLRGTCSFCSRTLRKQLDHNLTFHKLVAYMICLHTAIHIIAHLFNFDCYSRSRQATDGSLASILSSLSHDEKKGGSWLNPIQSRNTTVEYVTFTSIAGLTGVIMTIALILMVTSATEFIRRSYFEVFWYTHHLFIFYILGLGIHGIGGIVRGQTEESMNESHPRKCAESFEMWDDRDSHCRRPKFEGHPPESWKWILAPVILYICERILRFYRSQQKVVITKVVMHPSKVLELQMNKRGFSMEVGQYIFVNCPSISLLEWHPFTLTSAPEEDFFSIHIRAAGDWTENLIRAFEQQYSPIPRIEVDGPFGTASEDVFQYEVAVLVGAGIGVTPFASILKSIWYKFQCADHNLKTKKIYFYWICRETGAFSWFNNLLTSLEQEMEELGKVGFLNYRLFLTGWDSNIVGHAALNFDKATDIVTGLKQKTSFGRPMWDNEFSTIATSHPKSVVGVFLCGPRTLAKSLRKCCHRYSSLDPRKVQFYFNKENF
T1 sequence (P13498 2-195 partner limits assumed): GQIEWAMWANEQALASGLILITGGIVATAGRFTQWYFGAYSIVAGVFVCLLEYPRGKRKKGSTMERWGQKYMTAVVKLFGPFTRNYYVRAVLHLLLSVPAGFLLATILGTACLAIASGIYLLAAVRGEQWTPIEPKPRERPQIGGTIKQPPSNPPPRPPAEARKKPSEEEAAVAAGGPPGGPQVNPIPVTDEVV
Text: Plasmids are Purchased from Vectorbuilder. • for HEK-hNOX1 all necessary subunits are cloned accordingly: • pLV-CMV-hNOX1-puro (NM_007052.5) • pLV-CMV-hNOXO1-blas (NM_172168.3) • pLV-CMV-hp22phox-hygro (NM_000101.4) • pLV-CMV-hNOXA1-neo (NM_006647.2) • for HEK-hNOX3 • pLV-CMV-hNOX3-puro (NM_015718.3)
3rd generation lentiviral particles are produced in HEK293 suspension cells by transient transfection of three helper and expression plasmids. Crucial lentivirus supernatants are harvested, clarified by filtration and concentrated by precipitation. Lentivirus titers are determined in transducing units in (TU/mL) by transduction of HT1080 cells and colony forming assay. Parental HEK293 cells, purchased from CLS GmbH, are transduced with replication-incompetent 3rd generation lentiviral particles (MOI 2) and expanded for at least 2 weeks before cryopreservation of tested lots. During cultivation, medium is changed three times per week and cells are sub-cultured at least once per week. Selection antibiotics are added according to the plasmids (1 μg/ml puromycin, 1.5 μg/ml blasticidin, 200 μg/ml G418 and 100 μg/ml hygromycin).
Evaluation of the NOX4 inhibitors on NOX1 activity is assessed in HEK293 cells stably overexpressing human NOX1 (hNOX1).
Lastly, 8-amino-5-chloro-2,3-dihydro-7-phenyl-pyrido[3,4-d]pyridazine-1,4-dione sodium salt (L-012, CAS 143556-24-5) is added at 400 μM to all wells, and cells are incubated in an incubator for an additional 3 h. Afterwards luminescence is measured with a SpectraMax Paradigm Microplate Reader.

human hepatocytes = assay: Evaluation of hepatocyte clearance (metabolic stability); format: in vitro ADME; details: % of hepatic blood flow
Protocol: The metabolic degradation of the test compound is assayed in a hepatocyte suspension. Hepatocytes (cryopreserved) are incubated in Dulbecco's modified eagle medium (supplemented with […] glucagon/500 mL, 2.5 mg insulin/500 mL and 3.75 mg/500 mL hydrocortisone) containing 5% human serum.
Following a 30 min preincubation in an incubator (37° C., 10% CO2) 5 μl of test compound solution (80 μM; from 2 mM in DMSO stock solution diluted 1:25 with medium) are added into 395 μl hepatocyte suspension (cell density in the range 0.25-5 Mio cells/mL, typically 1 Mio cells/mL; final concentration of test compound 1 μM, final DMSO concentration 0.05%).
The cells are incubated for six hours (incubator, orbital shaker) and samples (25 μl) are taken at 0, 0.5, 1, 2, 4 and 6 hours. Samples are transferred into acetonitrile and pelleted by centrifugation (5 min). The supernatant is transferred to a new 96-deepwell plate, evaporated under nitrogen and resuspended.
Decline of Parent Compound is Analyzed by HPLC-MS/MS.
CLint is Calculated as Follows:
CL_[…]=Dose/AUC=(C0/CD)/(AUD+clast/k)×1000/60. • C0: initial concentration in the incubation [μM], CD: cell density of vital cells [10^6 cells/mL], AUD: area under the data [μM×h], clast: concentration of last data point [μM], • k: slope of the regression line for parent decline [h-1].
The calculated in vitro hepatic intrinsic clearance can be scaled up to the intrinsic in vivo hepatic clearance and used to predict hepatic in vivo blood clearance (CL) by the use of a liver model (well stirred model).
CL_[…]_INVIVO[ml/min/kg]=(CL_[…][μL/min/10^6 cells]×hepatocellularity[10^6 cells/g liver]×liver factor[g/kg bodyweight])/1000
CL[ml/min/kg]=CL_[…]_INVIVO[ml/min/kg]×hepatic blood flow[ml/min/kg]/(CL_[…]_INVIVO[ml/min/kg]+hepatic blood flow[ml/min/kg])

NOX4 = target: T2, NOX4 (Homo sapiens, UniProt Q9NPH5); details: modified HEK cells, Amplex Red; read-out: NOX4 IC50 [μM] as disclosed in WO2016207785; cited from earlier work
T2 construct: host or cells: modified HEK cells
T2 sequence (Q9NPH5 1-578): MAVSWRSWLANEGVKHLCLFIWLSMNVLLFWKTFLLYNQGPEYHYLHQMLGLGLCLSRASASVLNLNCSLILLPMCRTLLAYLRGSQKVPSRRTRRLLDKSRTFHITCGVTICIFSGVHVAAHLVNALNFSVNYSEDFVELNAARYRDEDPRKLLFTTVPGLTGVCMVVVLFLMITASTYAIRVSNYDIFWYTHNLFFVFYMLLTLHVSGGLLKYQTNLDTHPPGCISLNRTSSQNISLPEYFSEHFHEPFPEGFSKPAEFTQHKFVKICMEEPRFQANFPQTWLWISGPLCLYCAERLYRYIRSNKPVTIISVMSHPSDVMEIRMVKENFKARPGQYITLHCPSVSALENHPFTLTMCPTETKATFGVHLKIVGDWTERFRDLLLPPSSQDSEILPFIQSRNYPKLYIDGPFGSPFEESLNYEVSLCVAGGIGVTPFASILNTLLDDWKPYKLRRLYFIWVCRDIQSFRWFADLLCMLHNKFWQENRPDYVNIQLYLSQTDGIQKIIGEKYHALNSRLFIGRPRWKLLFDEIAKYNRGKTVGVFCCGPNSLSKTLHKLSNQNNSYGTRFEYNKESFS
T2 sequence (P13498 2-195 partner limits assumed): T1 sequence (P13498 2-195 partner limits assumed)

human NOX4 (hNOX4) = target: T3, human NOX4 (hNOX4) (Homo sapiens, UniProt Q9NPH5); assay: cell-based
T3 sequence (Q9NPH5 1-578): T2 sequence (Q9NPH5 1-578)
T3 sequence (P13498 2-195 partner limits assumed): T1 sequence (P13498 2-195 partner limits assumed)

| IC50 (human NOX1 (hNOX1)) [nM] | clearance in human hepatocytes (human hepatocytes) [% QH] | IC50 (human NOX4 (hNOX4)) | Compound | IC50 (NOX4) [µM] |
| --- | --- | --- | --- | --- |
| > 100000 | 52 | 560 nM and 555 nM | O=c1c2scnc2nc(SCc2cccc(F)c2)n1-c1ccc(O)cc1 [Example 1, 5-((3-Fluorobenzyl)thio)-6-(4-hydroxyphenyl)thiazolo[4,5-d]pyrimidin-7(6H)-one] | 0.34 |
|  | 29 |  | O=C(Nc1ccc2oc(N3CCC34COC4)nc2c1)c1ccc2c(c1)CCO2 [Example 15 of WO2016207785] |  |
|  | 46 |  | O=C(Nc1ccc2c(c1)CCO2)c1ccc2oc(N3CCC34COC4)nc2c1 [Example 80] |  |
|  |  | 5450 nM | O=c1c2scnc2nc(SCc2ccc(Cl)cc2)n1-c1cccnc1 [reference compound] |  |
|  |  | 8120 nM | Cc1cc(F)ccc1CSc1nc2ncsc2c(=O)n1-c1cccnc1 [reference compound] |  |
|  |  | 1650 nM | O=c1c2scnc2nc(SCc2c(F)cc(F)cc2F)n1-c1cncc(F)c1 [reference compound] |  |
